Structures can show the parent of a compound that is named as a salt.
Legend:
[1] = Transport through human stratum corneum (Franz diffusion cells); format: in vitro ADME
Description: In this example, bilaminate mucoadhesive discs, containing as an active substance benzocaine or Dyclonine HCl, were affixed to human stratum corneum and mounted on Franz diffusion cells. The donor side of the cell was filled with pH 6 buffer and the receiver side was filled with PBS. Samples were taken from the receiver side and analyzed using HPLC, and the average amount and percentage of active substance appearing in the receiver cell were determined.

[2] = Release of benzocaine into distilled water: effect of polymer molecular weight; format: physicochemical; conditions: HPC 80 k vs. 300 k in active-containing layer, FIG. 11
Description: In this Example, bilaminate mucoadhesive discs containing benzocaine were constructed generally as described in Example IX, substituting benzocaine for Dyclonine. Discs were made using HPC both at the same molecular weight as described in Example 2 (80 k), and at a higher molecular weight (300 k), and the release into distilled water was tested as described in Example X. The results are shown in FIG. 11.

[3] = Transport through pig mucosa (Franz diffusion cells); format: in vitro ADME, porcine
Description: In this example, bilaminate mucoadhesive discs, containing as an active substance benzocaine or Dyclonine HCl, were affixed to porcine buccal mucosa and mounted on Franz diffusion cells as described in Example XIII. Avenge amounts of active substance was measured using HPLC, and percents were expressed as a percent of the total initially in the disc.
Particularly, the donor side of the cell was filled with pH 6 buffer and the receiver side was filled with phosphate buffered saline ("PBS"). Samples were taken from the receiver side every thirty minutes for three hours, and the samples were analyzed by HPLC. The average amount and the average percent of active substance appearing in the receiver side after three hours are shown in Table IV.

Row | Structure (SMILES) | Average % Transported ([1]; 15% in bilaminate disc, donor pH 6 buffer, receiver PBS) [%] | Average Amount Delivered ([1]; pH 6) [μg/cm^2] | release rate of benzocaine vs. molecular weight of HPC [2] | Average % Transported ([3]; 15% in bilaminate disc, % of drug initially in device, three hours, donor pH 6 buffer, receiver PBS) [%] | Average Amount Delivered ([3]; pH 6) [μg/cm^2] | Average % Transported ([1]; pH 6) [%] | Average % Transported ([3]; pH 6) [%]
1 | CCOC(=O)c1ccc(N)cc1 [Benzocaine, benzocaine] | 2.42 | 255.56 | decrease in release rate of benzocaine with increasing molecular weight of HPC | 3.29 | 284.63 |  | 
2 | CCCCOc1ccc(C(=O)CCN2CCCCC2)cc1 [Dyclonine HCl] |  | 14.60 |  |  | 282.77 | 0.18 | 3.94
